Legend:
[1] = tested on: Hepatocytes Isolated and Cultured from Obese Zucker (fa/fa) Rats; assay: Inhibition of glucose output from hepatocytes isolated and cultured from obese Zucker (fa/fa) rats; type: cell-based, rat; conditions: Rattus norvegicus, Hepatocyte; inhibition of glucose output vs glucagon stimulated cultured hepatocytes
Method: Inhibition of Glucose Output from Hepatocytes Isolated and Cultured from Obese Zucker (fa/fa) Rats and their Lean Controls
Culturing of Hepatocytes: Isolated hepatocytes were plated on 12 well rat-tail collagen coated plates at a cell density of 5×10(5) cells/ml (approximately 1 ml of cell suspension per well). Following a one hour attachment period in which plates were incubated in a CO2 incubator at 37 deg C. (95% O2, 5% CO2), the supernatant containing unattached hepatocytes was removed and replaced with fresh media (1 ml/well) containing 1 μM dexamethasone and 100 pM insulin. Cells were maintained at 37 deg C. for 48 hours in a 95% O2, 5% CO2 environment. At the end of the first 24 hours, the media was aspirated off of the wells and replaced with fresh media containing the same concentrations of dexamethasone and insulin as described earlier. Treatment with Drugs and Assessment of Glucose Output: Drugs were routinely added with fresh media 24 hours after the initial attachment period. Eighteen hours later, media was aspirated and 500 μl of fresh Hank's buffer, Buffer D (glucose-free) supplemented with hormones, gluconeogenic substrates and drug(s) was added to each well and incubated for 4 hours. At the end of the 4 hour incubation, media from each well was removed and assayed for glucose content using the hexokinase/glucose-6-phosphate dehydrogenase coupled assay on the Boehringer Mannheim model 911 auto analyzer. Glucose concentration was expressed as μg/ml. Three of the plates from each treated group were frozen for subsequent determination of protein content. Two plates from each treatment group were used to assess the cytotoxicity of drug(s) and other agents as determined by the MTT (tetrazolium) dye reduction method (see below).
Assessment of Cytotoxicity using MTT Dye Reduction Assay: Two plates with no insulin treatment and two plates with 10^−8 M insulin treatment were used for the MTT dye reduction assay. Following removal of media from the plates for measurement of glucose output, wells were washed once with 1 ml of Hank's buffer (0.5% BSA). Aliquots of […] of Hank's buffer (1.1% BSA) and […] MTT solution (5 mg MTT/ml in phosphate buffered saline (PBS) filtered through 0.45 micron syringe filter) were added to each well. Plates were incubated for one hour at 37 deg C. After one hour incubation, the MTT dye solution was aspirated off and […] of HCL/isopropanol solution (8 ml of 1 N HCL and 192 ml of isopropanol) was added to each well. HCL/isopropanol solution was mixed by drawing liquid into a pipetman 2 to 3 times and then carefully transferred into a 96 well flat bottom plate. The 96 well plate was read on a plate reader (UV max kinetic microplate reader, Molecular Devices) at 570 nm test wavelength and 650 nm reference wavelength. The results were expressed as % inhibition from the control (lactate and glucagon treated) well.
Protein test procedure: Three plates with no insulin treatment and three plates with 10^−8 M insulin treatment were used for protein determination. After supernatant has been removed for determination of glucose output the plates were frozen and stored at −20 deg C. until ready to assay for protein content. Prior to determination of protein the plates were defrosted at room temperature for 15 minutes. An aliquot of 1 ml 0.1 N NaOH was added to each well. Plates were incubated at 4 deg C. overnight. Solutions for measurement of protein content were mixed by pipetting the NaOH solution up and down several time with a 1 ml pipette and then transferring to a small polyethylene tube. Protein determination was based on that of the Pierce BCA protein assay protocol (Pierce cat. no. 23223). A set of protein standards (0.2, 0.4, 0.6, 0.8, and 1 mg/ml BSA) was prepared by serial dilution of 1 mg/ml bovine serum albumin with 0.1 N NaOH, and 40 μl of each standard, or control blank was pipetted into a 96-well plate in duplicate. Each unknown protein sample (40 μl) was tested in triplicate. […]

ob/ob (C57 B1/6J) mice [2] = assay: Hypoglycemic effect in diabetic ob/ob mice; type: in vivo, mouse
Method: Hypoglycemic Effect in Diabetic OB/OB Mice
Procedure: In each study, male or female ob/ob (C57 B1/6J) mice and their mean litermates (ob/+ or +/+, Jackson Laboratories) ages 2 to 5 months (10 to 65 g) were randomized according to plasma glucose into 4 groups of 10 mice. The mice were housed 5 per cage and were maintained on normal rodent chow with water ad libitum. Mice receive compound daily by gavage (suspended in 0.5 ml of 0.5% methyl cellulose); dissolved in the drinking water; or admixed in the diet. The dose of compounds given ranges from 2.5 to 200 mg/kg body weight/day. Body weight of fed animals was measured at the beginning of each week and doses for the entire week were calculated using this weight and were expressed in terms of the active moiety of the compound. Control mice receive vehicle only. […]
Measurements: The plasma was isolated by centrifugation and the concentration of glucose was measured enzymatically on an Abbott V. P. Analyzer and the plasma concentration of insulin was determined by radioimmunoassay (Heding, 1972)
Analysis of variance followed by Dunnett's Comparison Test (one-tailed) was used to estimate the significant difference between the plasma glucose values from the control group and the individual compound treated groups (CMS SAS Release 5.18). A compound will be considered active if the difference has a p<0.05.

ob/ob (C57 B1/6J) mice [3] = conditions: reference compound, 20 mg/kg/day; cited from earlier work

| Compound | IC50 [1] [nM] | Reduction in Plasma Glucose Day 1 (6 hr) p.o. (ob/ob (C57 B1/6J) mice [2]; 25 mg/kg p.o.) | Reduction in Plasma Glucose Day 3 (6 hr) p.o. (ob/ob (C57 B1/6J) mice [2]; 25 mg/kg p.o.) | melting point [°C] | Reduction in Plasma Glucose Day 1 (6 hr) p.o. (ob/ob (C57 B1/6J) mice [2]; 5 mg/kg p.o.) [%] | Reduction in Plasma Glucose Day 3 (6 hr) p.o. (ob/ob (C57 B1/6J) mice [2]; 5 mg/kg p.o.) [%] | lowering in plasma glucose (ob/ob (C57 B1/6J) mice [3]) |
| --- | --- | --- | --- | --- | --- | --- | --- |
| COc1cc(COCCc2cccc(NS(=O)(=O)C(F)(F)F)c2)ccc1-c1ccc(Cl)cc1 [Example 88, N-{3-[2-(4′-Chloro-2-methoxy-biphenyl-4-ylmethoxy)-ethyl]-phenyl}-C,C,C-trifluoromethane sulfonamide] | 4000 | −71 | −29 | 88 to 90 | – | – | – |
| O=S(=O)(Nc1cccc(CCOCc2ccc(-c3ccc(Cl)cc3)cc2)c1)C(F)(F)F [Example 7, N-{3-[2-(4′-Chloro-biphenyl-4-ylmethoxy)-ethyl]-phenyl}-C,C,C-trifluoromethane sulfonamide] | 2500 | – | – | 69 to 70 | −8 | −22 | – |
| sodium metavanadate | – | – | – | – | – | – | significant lowering in plasma glucose |
| O=S(=O)(Nc1cccc(CCOCc2ccc(-c3ccc(Cl)c(Cl)c3)cc2)c1)C(F)(F)F [Example 6, N-{3-[2-(3′,4′-Dichloro-biphenyl-4-ylmethoxy)-ethyl]-phenyl}-C,C,C-trifluoro-methanesulfonamide] | 2300 | – | – | 74 to 75 | −16 | −24 | – |
